Laboratory results from US8114847B2, “Selective inhibitors of translesion DNA replication” (Case Western Reserve University, priority 2005, dated 2012).
“And” between values parts separate entries of the source, which are not always exact repeats. Equal values may be shown once. Read-outs that look alike come from different tables or passages of the source.

Key:
[1] = target: T1, gp43exo− (bacteriophage T4 DNA polymerase) (Enterobacteria phage T4, UniProt P04415, D219A); details: cited from earlier work; for Kd / kpol: opposite an abasic site, previously determined values (Table 7 footnotes d, e, f not given); for Kd: read-out: KD
T1 sequence (P04415 whole entry D219A, looked up): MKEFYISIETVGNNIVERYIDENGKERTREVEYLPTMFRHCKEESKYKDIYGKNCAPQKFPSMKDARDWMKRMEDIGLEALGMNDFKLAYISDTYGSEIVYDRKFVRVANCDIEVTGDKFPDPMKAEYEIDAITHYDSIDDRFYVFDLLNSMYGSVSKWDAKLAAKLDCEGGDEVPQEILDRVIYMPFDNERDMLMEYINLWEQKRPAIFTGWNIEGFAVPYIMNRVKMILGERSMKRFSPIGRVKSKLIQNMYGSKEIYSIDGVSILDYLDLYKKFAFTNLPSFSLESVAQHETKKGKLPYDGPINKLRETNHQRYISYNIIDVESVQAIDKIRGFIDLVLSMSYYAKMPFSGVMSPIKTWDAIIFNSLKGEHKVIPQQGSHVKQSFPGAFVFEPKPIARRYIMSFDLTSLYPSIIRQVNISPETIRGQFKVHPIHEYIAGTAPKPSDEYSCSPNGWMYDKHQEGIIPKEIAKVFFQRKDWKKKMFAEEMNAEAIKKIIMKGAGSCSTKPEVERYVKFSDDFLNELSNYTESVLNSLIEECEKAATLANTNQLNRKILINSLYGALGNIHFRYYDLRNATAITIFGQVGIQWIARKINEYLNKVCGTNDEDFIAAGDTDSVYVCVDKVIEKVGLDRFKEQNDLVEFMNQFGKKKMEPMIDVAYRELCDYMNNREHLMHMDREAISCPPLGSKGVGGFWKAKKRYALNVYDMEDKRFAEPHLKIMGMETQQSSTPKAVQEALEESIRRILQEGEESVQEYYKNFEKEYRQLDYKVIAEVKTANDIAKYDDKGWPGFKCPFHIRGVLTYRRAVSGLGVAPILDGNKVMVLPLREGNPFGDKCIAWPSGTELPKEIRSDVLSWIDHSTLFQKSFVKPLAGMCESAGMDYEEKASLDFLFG

[2] = target: T1, gp43exo− (bacteriophage T4 DNA polymerase); assay type: biochemical
[3] = target: T1, gp43exo− (bacteriophage T4 DNA polymerase); assay: biochemical
[4] = target: T1, gp43exo− (bacteriophage T4 DNA polymerase); details: cited from earlier work
[5] = target: T1, gp43exo− (bacteriophage T4 DNA polymerase); assay: biochemical; assay type: biochemical
[6] = target: T1, gp43exo− (bacteriophage T4 DNA polymerase); assay: biochemical; assay type: biochemical; details: 500 μM dNTPs
[7] = target: T1, gp43exo− (bacteriophage T4 DNA polymerase); assay type: biochemical; details: 500 μM analogue; 10 μM dNTPs; unmodified 13/20-mer
[8] = target: T1, gp43exo− (bacteriophage T4 DNA polymerase); assay: biochemical; details: for kpol: pseudo-first-order conditions

For `O=P(O)(O)OP(=O)(O)OP(=O)(O)OC[C@H]1O[C@@H](n2ccc3cc(C4=CCCCC4)ccc32)C[C@@H]1O` [5-CE-ITP], the Kd [1] is given as about 10 µM.
For `O=P(O)(O)OP(=O)(O)OP(=O)(O)OC[C@H]1O[C@@H](n2cnc3c(Cl)ncnc32)C[C@@H]1O` [6-Cl-dATP], the kext [2] was 0.031 ± 0.003 s⁻¹, the kpol [3] was 0.28 ± 0.02 s⁻¹ and the “kpol higher/faster than that for dATP” value [3] was 2 fold. For the same molecule, the Kd ([3]; read-out: KD) was 83 ± 16 µM.
For `Nc1ncnc2nc[nH]c12` [adenine, reference compound], the “Catalytic efficiency (kpol/KD)” value [4] is given as 1500 M⁻¹ s⁻¹.
For `Nc1ccc2[nH]ccc2c1` [5-amino-indole], the “Catalytic efficiency (kpol/KD)” value [5] was 500 M⁻¹ s⁻¹.
In the case of `O=P(O)(O)OP(=O)(O)OP(=O)(O)OC[C@H]1O[C@@H](n2ccc3ccccc32)C[C@@H]1O` [IndTP, reference compound], the “inhibition of replication beyond an abasic site” value ([6]; 20 μM analogue) is listed as “inhibition is not observed”, the “inhibition of replication beyond an abasic site” value ([6]; 350 μM analogue) is listed as “no effect on the kinetics of elongation” and the kpol [4] is listed as 0.28 ± 0.07 s⁻¹. For the same molecule, the kpol/KD [4] was 1900 M⁻¹ s⁻¹, the Kd ([4]; read-out: KD) was 145 ± 10 µM and the “inhibition of normal DNA synthesis” value [7] was “do not inhibit normal DNA synthesis”.
For `Nc1nc(Cl)c2ncn([C@H]3C[C@H](O)[C@@H](COP(=O)(O)OP(=O)(O)OP(=O)(O)O)O3)c2n1` [6-Cl-2APTP], the “elongated slower compared to dATP, N^7-deaza dATP and N^6-methyl dATP” value [2] was about 10 fold, the kext [2] was 0.033 ± 0.004 s⁻¹ and the kpol [3] was 0.12 and 0.12 ± 0.01 s^−1. It also gave a Kd ([3]; read-out: KD) of 71 ± 20 µM.
In the case of `CNc1ncnc2c1ncn2[C@H]1C[C@H](O)[C@@H](COP(=O)(O)OP(=O)(O)OP(=O)(O)O)O1` [N^6-methyl dATP], the kext [2] is reported as 0.71 ± 0.04 s⁻¹, the kpol [3] is reported as 5.6+/−0.6 and 5.3 and 5.6 ± 0.6 s^−1 and the “kpol higher/faster than that for dATP” value [3] is reported as 40 fold. It also gave a Kd ([3]; KD) of 190 µM.
In the case of `c1ccc(-c2ccc3[nH]ccc3c2)cc1` [5-phenyl-indole], the “Catalytic efficiency (kpol/KD)” value [5] is reported as 3.8e+06 M⁻¹ s⁻¹.
For `Fc1ccc2[nH]ccc2c1` [5-fluoro-indole], the “Catalytic efficiency (kpol/KD)” value [5] was 2000 M⁻¹ s⁻¹.
In the case of `COc1nc(N)nc2c1ncn2[C@H]1C[C@H](O)[C@@H](COP(=O)(O)OP(=O)(O)OP(=O)(O)O)O1` [O^6-methyl dGTP], the “increase in kext compared with dGTP” value [2] is reported as about 20 fold, the kext [2] is reported as 0.092 ± 0.009 s⁻¹ and the kpol [3] is reported as 0.98 and 0.98 ± 0.08 s^−1. For the same molecule, the “kpol higher/faster than that for dGTP” value [3] was 40 fold and the Kd ([3]; read-out: KD) was 180 µM and 181 µM.
For `O=[N+]([O-])c1ccc2[nH]ccc2c1` [5-nitro-indole], the “Catalytic efficiency (kpol/KD)” value [4] is listed as 7e+06 M⁻¹ s⁻¹.
For `Nc1ccc2c(ccn2[C@H]2C[C@H](O)[C@@H](COP(=O)(O)OP(=O)(O)OP(=O)(O)O)O2)c1` [5-AITP, 5-Amino-Indole-2′-Deoxyribofuranoside 5″-Triphosphate], the kpol/KD ([8]; Template A) was 0.46 × 10^3 M^−1S^−1, the kpol ([8]; Template A) was 0.21 ± 0.01 s⁻¹ and the kpol/KD ([8]; Template T) was 0.53 × 10^3 M^−1S^−1. The kpol ([8]; Template T) was 0.071 ± 0.003 s⁻¹, the “inhibition of replication beyond an abasic site” value ([6]; 20 μM analogue) was “inhibition is not observed” and the “inhibition of replication beyond an abasic site” value ([6]; 350 μM analogue) was “no effect on the kinetics of elongation”. The kpol [5] was 0.17 ± 0.01 s⁻¹, the kpol/KD [5] was 700 M⁻¹ s⁻¹ and the “inhibition of normal DNA synthesis” value [7] was “do not inhibit normal DNA synthesis”.
With `Nc1ncnc2c1ccn2[C@H]1C[C@H](O)[C@@H](COP(=O)(O)OP(=O)(O)OP(=O)(O)O)O1` [7-Deaza dATP] the kext [2] was 0.32 ± 0.03 s⁻¹, the “catalytic efficiency higher than that for 7-deaza dGTP” value [3] was over 10 fold and the kpol [3] was 1.4 and 1.4 ± 0.1 s^−1. For the same molecule, the “kpol higher/faster than that for dATP” value [3] was about 10 fold and the Kd ([3]; KD) was 200 µM and 197 µM.
For `Nc1ncnc2c1ncn2[C@H]1C[C@H](O)[C@@H](COP(=O)(O)OP(=O)(O)OP(=O)(O)O)O1` [dATP], the kext [2] is listed as 0.25 ± 0.01 s⁻¹, the kpol [4] is listed as “≈ 0.15 s^−1” and the kpol/KD [4] is listed as 4300 M⁻¹ s⁻¹. For the same molecule, the “overall catalytic efficiency opposite an abasic site greater than dGTP” value [1] was about 35 fold, the kpol [1] was 0.15 s⁻¹ and 0.15 ± 0.01 s⁻¹ and the Kd [1] was 35 µM.
With `O=P(O)(O)OP(=O)(O)OP(=O)(O)OC[C@H]1O[C@@H](n2ccc3cc(F)ccc32)C[C@@H]1O` [5-FITP, 5-Fluoro-indole-2′-deoxyribofuranoside 5′-Triphosphate] the kpol/KD ([8]; Template A) was 0.6 × 10^3 M^−1S^−1, the kpol ([8]; Template A) was 0.11 ± 0.06 s⁻¹ and the kpol/KD ([8]; Template T) was 0.29 × 10^3 M^−1S^−1. The kpol ([8]; Template T) was 0.040 ± 0.003 s⁻¹, the “inhibition of replication beyond an abasic site” value ([6]; 20 μM analogue) was “inhibition is not observed” and the “inhibition of replication beyond an abasic site” value ([6]; 350 μM analogue) was “no effect on the kinetics of elongation”. For the same molecule, the kpol [5] was 0.30 ± 0.03 s⁻¹, the kpol/KD [5] was 2000 M⁻¹ s⁻¹ and the “inhibition of normal DNA synthesis” value [7] was “do not inhibit normal DNA synthesis”.
In the case of `Nc1ncnc2c1[nH]c(=O)n2[C@H]1C[C@H](O)[C@@H](COP(=O)(O)OP(=O)(O)OP(=O)(O)O)O1` [8-Oxo dATP], the “incorporation opposite an abasic site” value [3] is reported as “no incorporation was observed”.
For `Nc1nc2c(ccn2[C@H]2C[C@H](O)[C@@H](COP(=O)(O)OP(=O)(O)OP(=O)(O)O)O2)c(=O)[nH]1` [7-Deaza dGTP], the “extension beyond dXMP:abasic site mispair” value [2] was “lack of extension”, the kpol [3] was 0.11 and 0.11 ± 0.02 s^−1 and the “kpol higher/faster than that for dGTP” value [3] was about 5 fold. For the same molecule, the Kd ([3]; KD) was 215 µM.
With `CNc1nc2c(ncn2[C@H]2C[C@H](O)[C@@H](COP(=O)(O)OP(=O)(O)OP(=O)(O)O)O2)c(=O)[nH]1` [N^2-methyl dGTP] the kpol [3] was 0.12 and 0.12 ± 0.02 s^−1, the “kpol higher/faster than that for dGTP” value [3] was about 5 fold and the Kd ([3]; read-out: KD) was 245 µM.
For `c1ccc2[nH]ccc2c1` [indole, reference compound], the “Catalytic efficiency (kpol/KD)” value [4] is given as 1900 M⁻¹ s⁻¹.
In the case of `O=c1[nH]cnc2c1ncn2[C@H]1C[C@H](O)[C@@H](COP(=O)(O)OP(=O)(O)OP(=O)(O)O)O1` [dITP], the “extension beyond dXMP:abasic site mispair” value [2] is reported as “lack of extension”, the kpol [3] is reported as 0.044 ± 0.003 s⁻¹ and the “kpol lower than that of dATP” value [3] is reported as 3.5 fold. For the same molecule, the Kd ([3]; read-out: KD) was 103 ± 14 µM.
With `Nc1nc(N)c2ncn([C@H]3C[C@H](O)[C@@H](COP(=O)(O)OP(=O)(O)OP(=O)(O)O)O3)c2n1` [2,6-DAPTP] the kext [2] was 0.016 ± 0.003 s⁻¹, the kpol [3] was 2.4 s⁻¹ and 2.4 ± 0.3 s⁻¹ and the “kpol higher/faster than that for dATP” value [3] was 16 fold. For the same molecule, the Kd ([3]; read-out: KD) was 900 µM.
For `Nc1nc2c(ncn2[C@H]2C[C@H](O)[C@@H](COP(=O)(O)OP(=O)(O)OP(=O)(O)O)O2)c(=O)[nH]1` [dGTP], the kext [2] is given as 0.005 ± 0.001 s⁻¹, the kpol [1] is given as 0.023 ± 0.005 s⁻¹ and the Kd [1] is given as 130 µM.
